# Molecular target: CYP3A4 (Homo sapiens, UniProt P08684)
# Assay: in vitro CYP metabolism
# Format: in vitro ADME
# Chain of CYP3A4 (P08684 whole entry): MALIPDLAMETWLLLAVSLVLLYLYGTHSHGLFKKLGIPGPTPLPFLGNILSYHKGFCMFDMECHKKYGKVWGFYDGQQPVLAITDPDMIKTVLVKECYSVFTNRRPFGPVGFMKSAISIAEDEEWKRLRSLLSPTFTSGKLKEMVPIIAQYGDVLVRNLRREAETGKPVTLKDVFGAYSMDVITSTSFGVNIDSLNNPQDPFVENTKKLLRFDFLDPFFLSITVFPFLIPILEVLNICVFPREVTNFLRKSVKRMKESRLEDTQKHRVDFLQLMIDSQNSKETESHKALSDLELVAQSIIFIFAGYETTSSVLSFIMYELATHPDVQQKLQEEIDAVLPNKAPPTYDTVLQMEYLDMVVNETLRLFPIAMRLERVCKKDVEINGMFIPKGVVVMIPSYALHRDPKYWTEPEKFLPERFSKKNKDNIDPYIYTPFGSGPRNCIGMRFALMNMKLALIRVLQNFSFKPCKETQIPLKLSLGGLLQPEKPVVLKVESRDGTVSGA
smiles,measurement,value
"O=C(Nc1ccc(C[C@@H]2CC[C@H]([C@H](O)c3ccccc3)N2)cc1)[C@@H]1CCc2nccc(=O)n21 [Vibegron, (6S)—N-[4-[[(2S,5R)-5-[(R)-hydroxy(phenyl)methyl]pyrrolidin-2-yl]methyl]phenyl]-4-oxo-7,8-dihydro-6H-pyrrolo[1,2-a]pyrimidine-6-carboxamide]",predominant CYP responsible for in vitro metabolism,CYP3A4
